Read-outs that look alike come from different tables or passages of the source.
Settings: 1 month, product of Example 4

SMILES: CN(CCOc1ccc(CC2SC(=O)NC2=O)cc1)c1ccccn1.O=C(O)C(O)C(O)C(=O)O [L(+) Tartrate, 5-[4-[2-(N-methyl-N-(2-pyridyl)amino)ethoxy]benzyl]thiazolidine-2,4-dione L-(+)-tartrate]
- HPLC assay (final content) (40° C./75% Relative Humidity (RH), open exposure): 97 % initial
- HPLC assay (final content) (50° C., closed): 98 % initial
